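1) Cells in 96-well plates. 2) Compound, 48 h, 5 concentrations. 3) Linear interpolation between surrounding doses. 4) Unreached endpoint = highest concentration. TGI is the concentration that stops growth completely.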
What was measured:
Experiment in all cases: NCI tumour cell line growth inhibition, 48 h
IGROV1 ovarian = test system: IGROV1 ovarian
ACHN renal = test system: ACHN renal
SK-OV-3 ovarian = test system: SK-OV-3 ovarian
786-0 renal = test system: 786-0 renal
SF-295 CNS = test system: SF-295 CNS
OVCAR-3 ovarian = test system: OVCAR-3 ovarian
SK-MEL-2 melanoma = test system: SK-MEL-2 melanoma
SW-620 colon = test system: SW-620 colon
M14 melanoma = test system: M14 melanoma
UACC-257 melanoma = test system: UACC-257 melanoma
HCC-2998 colon = test system: HCC-2998 colon

| Compound | TGI (IGROV1 ovarian) [µM] | TGI (ACHN renal) [µM] | TGI (SK-OV-3 ovarian) [µM] | TGI (786-0 renal) [µM] | TGI (SF-295 CNS) [µM] | TGI (OVCAR-3 ovarian) [µM] | TGI (SK-MEL-2 melanoma) [µM] | TGI (SW-620 colon) [µM] | TGI (M14 melanoma) [µM] | TGI (UACC-257 melanoma) [µM] | TGI (HCC-2998 colon) [µM] |
| --- | --- | --- | --- | --- | --- | --- | --- | --- | --- | --- | --- |
| O=C1Nc2cc([N+](=O)[O-])c(Br)cc2C1=O | 32.7 | 35.3 | > 100 | 35.8 | 14.3 | 32.1 | 71.9 | 38.6 | 30.1 | 35.1 | – |
| COc1ccc2c(c1)OCCc1cn[nH]c1-2 | 56.1 | – | > 100 | – | > 100 | > 100 | > 100 | > 100 | – | > 100 | > 100 |
| CCCCCCCCCC(=O)N[C@@H](c1ccco1)[C@@H](O)C(=O)O[C@H]1C[C@@]2(O)[C@@H](OC(=O)c3ccccc3)[C@@H]3[C@]4(OC(C)=O)CO[C@@H]4C[C@H](O)[C@@]3(C)C(=O)[C@H](OC(C)=O)C(=C1C)C2(C)C | 16.1 | > 22.7 | > 18.7 | 7.95 | 0.211 | 3.48 | – | > 50 | – | 11.7 | 0.736 |
| CC(=O)NNc1nc(C)c(C(=O)NNC(=O)C(=O)Nc2cccc(C(C)=O)c2)s1 | 60.7 | 30.8 | 32.5 | – | 66.2 | – | > 100 | > 100 | – | 49.9 | 32.5 |
| Cc1ccc(Sc2ccccc2[N+](=O)[O-])cc1 | > 100 | > 100 | > 100 | – | 70.9 | > 100 | > 100 | > 100 | > 100 | 67.8 | 68.3 |
| C[S+](C)CC1OC(n2cnc3c(N)ncnc32)C(O)C1O (stereo unspecified) | > 225 | – | > 225 | – | > 225 | > 225 | > 225 | > 225 | – | > 225 | > 225 |
| Cc1ccc(S(=O)(=O)NC(=O)NC(CCCCN=C(N)N)C(=O)O)cc1 (stereo unspecified) | > 100 | > 100 | > 100 | > 100 | > 100 | – | > 100 | > 100 | > 100 | > 100 | – |
| CCOC(=O)c1cc2c(OCc3ccccc3)c(OC)cc3c2c(n1)N(c1ccc(OC)cc1)C(C)C3 (stereo unspecified) | > 50 | > 50 | > 50 | > 50 | > 50 | > 50 | > 50 | > 50 | > 50 | – | > 50 |
| CC1(C)C2CCC3(OCCO3)C1C(O)C2 (stereo unspecified) | > 100 | > 100 | – | > 100 | > 100 | > 100 | > 100 | > 100 | > 100 | > 100 | > 100 |
| CC(C)=CCOc1cc(NC(=S)c2ccsc2C)ccc1Cl | 89.3 | > 100 | > 100 | > 100 | > 100 | > 100 | > 100 | > 100 | – | > 100 | 88 |
| CCOC(=O)NNC(=O)NCc1ccccc1CNC(=O)NNC(=O)OCC | > 100 | – | > 100 | > 100 | – | > 100 | > 100 | > 100 | > 100 | > 100 | > 100 |
| Cc1ccc(N(O)C(C)(C)C)cc1 | > 100 | – | > 100 | – | > 100 | > 100 | > 100 | > 100 | – | > 100 | > 100 |
| Cn1c([C@H](C#N)C(=O)c2cc(O)ccc2[N+](=O)[O-])nc2ccccc21 | > 100 | > 100 | – | > 100 | > 100 | > 100 | > 100 | – | > 100 | > 100 | > 100 |
| Nc1nccc(NCC2(CO)CCC2)n1 | > 100 | > 100 | – | > 100 | > 100 | > 100 | > 100 | > 100 | – | > 100 | > 100 |
| COC(=O)C1=C(O)C(C(=O)OC)[C@]2(O)[C@@H](C(=O)OC)[C@H]1C[C@@H](c1ccccc1)[C@@H]2C(=O)OC (stereo partly specified) | – | 55.7 | 47.3 | – | – | 31.8 | 28.2 | – | 24.5 | 25.8 | 27.3 |
| COC(=O)c1c(C)cccc1C1CN=NC12Cc1ccc(C)c(C)c1C2=O (stereo unspecified) | > 100 | > 100 | – | > 100 | > 100 | > 100 | – | > 100 | 96.2 | > 100 | 90.6 |
| Cc1ccnc2nc(N)ccc12 | > 100 | > 100 | > 100 | > 100 | > 100 | – | > 100 | > 100 | > 100 | > 100 | – |
| CC1(C)C(CCO)CC1n1ccc(=O)[nH]c1=O (stereo unspecified) | – | > 100 | > 100 | > 100 | > 100 | > 100 | > 100 | > 100 | > 100 | > 100 | > 100 |
| C[N+](C)(C)C=Nc1cccc2c1CCCC2 | > 100 | > 100 | > 100 | > 100 | > 100 | > 100 | > 100 | – | > 100 | > 100 | – |
| CC(C)OP(=O)(OC(C)C)C1=NN(c2ccc([N+](=O)[O-])cc2)C(P(=O)(OC(C)C)OC(C)C)=NN1c1ccc([N+](=O)[O-])cc1 | > 100 | > 100 | > 100 | – | – | > 100 | > 100 | > 100 | > 100 | – | > 100 |
| Cc1ccc(-c2cc(O)c3nc4ccccc4n3c2)cc1 | > 100 | – | > 100 | > 100 | > 100 | > 100 | – | > 100 | > 100 | > 100 | – |
| CC(=O)OC12c3ccccc3C(c3ccccc31)C1C(=O)N(c3ccccn3)C(=O)C12 (stereo unspecified) | > 100 | – | > 100 | > 100 | > 100 | > 100 | – | > 100 | > 100 | > 100 | > 100 |
| COC(=O)CC(C(C(=O)OCc1ccccc1)C(C)O)N1C(=O)OC(c2ccccc2)C1c1ccccc1 (stereo unspecified) | > 100 | > 100 | – | > 100 | > 100 | > 100 | > 100 | > 100 | > 100 | > 100 | > 100 |

From PubChem BioAssay (NCI)
